The values below come from PubChem BioAssay (NCI).

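Following 48 hours of exposure in 96-well plates, responses at five concentrations were used to interpolate endpoints linearly. The concentration for full growth arrest is given as TGI.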 *1 amine or outer side, *2 acyl side, *3 side chain or, on linkers, in order; H or OH if unused. Where a SMILES comes first, the peptide text is derived from it. The star is where a group is joined. γGlu = O=C(O)[CH](CCC(=O)[*:2])N[*:1]; NHOH = ON*

What all share (assay): NCI anticancer screen, dose series, 48 h
Assay [1] deals with CCRF-CEM leukemia.
For assay [2], the system named is HCC-2998 colon.
The subject of assay [3] is HL-60(TB) leukemia.
Assay [4] concerns HOP-92 NSCLC.
The test system of assay [5] is IGROV1 ovarian.
In assay [6] the test system is SK-MEL-2 melanoma.
Assay [7] has as its system T-47D breast.
Assay [8] deals with TK-10 renal.
In assay [9] the test system is UACC-257 melanoma.
The test system of assay [10] is UACC-62 melanoma.

`O=C(CSc1nc2ccccc2c(=O)n1-c1ccccc1)N=Nc1c(O)[nH]c2ccc(Br)cc12`: the TGI in assay [1] was > 100 µM; in assay [2], > 100 µM; in [3], 12.8 µM; in assay [4], 7.76 µM; in [5], 5.03 µM; in [6], 47.1 µM. The TGI in [7] was 28.6 µM; in assay [8], 12.4 µM; in assay [9] it was 52 µM; in [10], 25.9 µM.
Take `O=S(=O)(O)c1cc(O)c(N=NC2S(=O)(=O)OCCOS2(=O)=O)c2ccccc12`: the TGI in assay [1], in assay [2], in assay [3], in assay [4], in assay [5] and in [6] was > 100 µM throughout. In addition, the TGI in assay [7], in [8], in assay [9] and in assay [10] was > 100 µM in each case.
As for `CCOC(=O)Cn1nnc2ccc(Nc3nc4ccccc4nc3C(=O)OCC)cc21`, the TGI in assay [1], in assay [2], in assay [3], in assay [4], in assay [5] and in assay [6] was > 100 µM throughout. For the same compound, the TGI in assay [7], in [8], in assay [9] and in assay [10] was > 100 µM throughout.
In the case of `COc1ccc(OC)c([N+](=O)[O-])c1-c1nc2sc(Cl)cn2c1/C=N/N=C(N)N`, the TGI in assay [1] was > 100 µM; in assay [2], 35.6 µM; in assay [3] it was 29 µM; in [4], 31.2 µM; in assay [5], 28.8 µM; in [6], 38.8 µM. Also, the TGI came out at 42.7 µM in [7], 48.7 µM in [8], 37.5 µM in assay [9] and 29.5 µM in assay [10].
Take `COc1cc2ncnc(Nc3cccc(Br)c3)c2cc1OC`: the TGI in assay [1] was > 89.8 µM; in assay [2] it was 10.2 µM; in assay [3], > 75.2 µM; in assay [4] it was 36.3 µM; in assay [5], 29.6 µM; in assay [6] it was 12.9 µM. The TGI in [7] was 48 µM; in assay [8] it was 13.5 µM; in assay [9], > 40.9 µM; in [10], 17.5 µM.
For the compound `CN(C)CC1CCC/C(=C\c2ccc(Cl)c(Cl)c2)C1=O` (centres undefined), the TGI worked out at 2.68 µM in assay [1]; 25.5 µM in assay [2]; 4.06 µM in assay [3]; 13.4 µM in [4]; 12.1 µM in assay [5]; 16.8 µM in assay [6]. Further, the TGI stood at 5.71 µM in [7], 8.19 µM in assay [8], 21.7 µM in [9] and 12.8 µM in assay [10].
Turning to `O=C1O/C(=C(\Br)c2ccc([N+](=O)[O-])cc2)c2ccccc21`, the TGI in assay [1] was 62.7 µM; in [2], > 100 µM; in assay [3], > 67.1 µM; in assay [4] it was > 100 µM; in assay [5] it was > 100 µM; in [6] it was > 100 µM. The TGI in assay [7], in assay [8], in assay [9] and in [10] was > 100 µM each time.
Take `CCCCCCc1cc2cc(C(=O)Nc3nc(C45CC6CC(CC(C6)C4)C5)cs3)c(=O)oc2cc1O`: the TGI in assay [1] was 50.5 µM; in assay [2] it was 32.8 µM; in assay [3], 19.8 µM; in assay [4] it was 24.4 µM; in [5] it was 46.9 µM; in assay [6] it was 31.4 µM. In addition, the TGI was determined as 38.1 µM in assay [7], 34.2 µM in assay [8], 68 µM in [9] and 25.4 µM in assay [10].
For `O=c1[nH]c2c(C(F)(F)F)c(Cl)c(-c3ccccc3)nc2o1`, the TGI is 34 µM in [1]; > 100 µM in [2]; 13.7 µM in assay [3]; 75.7 µM in [4]; > 100 µM in [5]; 52.7 µM in assay [6]. For the same compound, the TGI was 90.9 µM in assay [7], > 100 µM in assay [8], 59.9 µM in assay [9] and > 100 µM in [10].
Turning to `Cc1c2ccccc2c(/C=N/NC(=O)CSCC(=O)N/N=C/c2c3ccccc3c(C)c3ccccc23)c2ccccc12`, the TGI in assay [1] is > 72.4 µM; in assay [2], 65.1 µM; in assay [3] it was > 100 µM; in assay [4], 38.6 µM; in [5] it was > 100 µM; in [6], > 100 µM. Besides, the TGI in assay [7] is > 82.4 µM; in [8], > 95.4 µM; in assay [9] it was > 100 µM; in assay [10], > 100 µM.
On to `NC(CCC(=O)NC(CCC(=O)NO)C(=O)NCC(=O)O)C(=O)O` (centres undefined) (γGlu-Glu(NHOH)-Gly-OH; configuration not given here), for which the TGI in assay [1], in assay [2], in [3], in assay [4], in assay [5] and in assay [6] was > 100 µM in each case. Besides, the TGI in [7], in assay [8], in [9] and in assay [10] was > 100 µM in each case.
With `O=C(Nc1ccc(Cl)cc1)c1cc(S(=O)(=O)Nc2nc3ncccc3[nH]2)c(SSc2cc(Cl)c(C(=O)Nc3ccc(Cl)cc3)cc2S(=O)(=O)Nc2nc3ncccc3[nH]2)cc1Cl`, the TGI in assay [1], in assay [2], in [3], in [4], in [5] and in assay [6] was > 100 µM throughout. In addition, the TGI in [7], in [8], in assay [9] and in assay [10] was > 100 µM each time.
For `CCCSc1ccc2[nH]c(N3C(=O)/C(=C/c4ccc(O)c(OC)c4)N=C3c3ccccc3)cc2c1`, the TGI was 93.8 µM in [1]; 14.1 µM in assay [2]; 11.6 µM in [3]; > 100 µM in assay [4]; > 100 µM in [5]; 2.73 µM in assay [6]. Further, the TGI in assay [7] was > 100 µM; in assay [9] it was 51.8 µM; in assay [10], 19.8 µM.
